The target in experiment [1] is T1, AAK1 (amino acids T27-A365) (Homo sapiens, UniProt Q2M2I8).
T1 construct: against AAK1 (amino acids T27-A365); 6His (N, cleaved yes)
In words: AAK1 pSENs assay. The experiment is classed as biochemical. Particulars: class symbols; read-out: AAK1 pSENs: EIC50. Here is the method:
(§1) The recombinant proteins were independently expressed in Escherichia coli BL21(DE3) cells cultured in Luria-Bertani (LB) medium until OD600 reached 0.6-0.8, then cooled to 15° C. and supplemented with 0.5 mM isopropyl 1-thio-D-galactopyranoside (IPTG) induce protein expression 16 h. Cells were harvested and resuspended in lysis buffer (50 mM HEPES pH 7.5, 500 mM NaCl, 5 mM imidazole, 5% glycerol, 0.5 mM Tris (2-carboxyethyl) phosphine (TCEP), cOmplete Protease Inhibitor Tablet (Roche)) and lysed by microfludics high pressure homogenizer (UH-06, Union-Biotech). Proteins were purified using […] chromatography (His FF column, Bestchrom) and eluted stepwise in binding buffer with 20-300 mM imidazole. Removal of the hexahistidine tag was performed at 4° C. overnight using recombinant TEV protease and reacted with BirA to obtain the corresponding biotinylated-AAK1, BIKE or GAK proteins. Further separated in the reverse Strep column (Strep-Tactin® XT, IBA). The Biotin elution sample was collected containing untagged biotinylated protein was then purified by Ion-exchange chromatography (Mono Q 10/100 GL, Cytiva) and Size-exclusion chromatography (HiLoad 16/600 Superdex 200 pg, Cytiva). The pure protein was stored in a storage buffer 50 mM HEPES (pH 7.5), 300 mM NaCl, 5% glycerol at −80° C. Protein were characterized by SDS-PAGE, LC-MS and aSEC.
This example describes one illustrative method for determining the IC50 of the compounds of the present invention against AAK1 (amino acids T27-A365). AAK1 protein was dissolved at 20 nM in 1× enzyme solution (50 mM HEPES pH7.5, 10 mM MgCl2, 1 mM DTT, 1% glycerol, 0.5 mM EGTA, 0.01% Briji35, 0.02% BSA) and 12.5 ul was incubated with 250 nl DMSO or 250 nl compound in DMSO at 25° C. for 15 min. The reaction was started by addition of 12.5 ul of 30 uM AQT0759 (Assayquant, CSKS-AQT0759B) and 70 uM ATP which were diluted in 1× substrate dilution buffer (50 mM HEPES pH7.5, 10 mM MgCl2, 1 mM DTT, 1% glycerol, 0.5 mM EGTA, 0.01% Briji35).

The target in a further experiment is AAK1 (Homo sapiens, UniProt Q2M2I8). In words: pAP2M1 cell-based assay (in-cell Western). Particulars: Hela cells co-transfected with AP2M1 and AAK1, 3 hr treatment; class symbols; read-out: AAK1 In-cell Western: IC50. The text has this:
pAP2M1 Cell-Based Assay (in-Cell Western):
The plate was read on Licor Odyssey CLx imaging system (LICOR) to acquire fluorescence intensity at 700 channel and 800 channel.
Data analysis: Fluorescence intensity at 700 channel served as internal standard and 800 channel were normalized with 700 channel.

In experiment [2] the target is T2, BIKE (amino acids S38-E345) (K320A, K321A) (Homo sapiens, UniProt Q9NSY1, K320A/K321A).
T2 construct: against BIKE (amino acids S38-E345) (K320A, K321A); 6His (N, cleaved yes)
As to the kind of experiment: BIKE pSENs assay. The experiment is classed as biochemical. Particulars: class symbols; read-out: BIKE pSENs: IC50. Here is the method:
as §1
BIKE protein was dissolved at 20 nM in 1× enzyme solution (50 mM HEPES pH7.5, 10 mM MgCl2, 1 mM DTT, 1% glycerol, 0.5 mM EGTA, 0.01% Briji35, 0.02% BSA) and 12.5 ul was incubated with 250 nl DMSO or 250 nl compound in DMSO at 25° C. for 15 min. The reaction was started by addition of 12.5 ul of 30 uM AQT0759 (Assayquant, CSKS-AQT0759B) and 40 uM ATP which were diluted in 1× substrate dilution buffer (50 mM HEPES pH7.5, 10 mM MgCl2, 1 mM DTT, 1% glycerol, 0.5 mM EGTA, 0.01% Briji35).

The structures appear in SMILES notation.

T1 sequence (Q2M2I8 27-365): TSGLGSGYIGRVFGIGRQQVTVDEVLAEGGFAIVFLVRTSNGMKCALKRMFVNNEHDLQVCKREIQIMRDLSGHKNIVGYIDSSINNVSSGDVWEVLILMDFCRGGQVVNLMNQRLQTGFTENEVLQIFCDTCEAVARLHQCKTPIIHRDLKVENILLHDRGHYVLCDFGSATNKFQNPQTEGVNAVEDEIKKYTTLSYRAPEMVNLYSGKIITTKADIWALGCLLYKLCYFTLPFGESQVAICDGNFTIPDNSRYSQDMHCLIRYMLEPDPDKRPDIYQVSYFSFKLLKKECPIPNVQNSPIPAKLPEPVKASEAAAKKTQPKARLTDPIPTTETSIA
AAK1, sequence (Q2M2I8 whole entry): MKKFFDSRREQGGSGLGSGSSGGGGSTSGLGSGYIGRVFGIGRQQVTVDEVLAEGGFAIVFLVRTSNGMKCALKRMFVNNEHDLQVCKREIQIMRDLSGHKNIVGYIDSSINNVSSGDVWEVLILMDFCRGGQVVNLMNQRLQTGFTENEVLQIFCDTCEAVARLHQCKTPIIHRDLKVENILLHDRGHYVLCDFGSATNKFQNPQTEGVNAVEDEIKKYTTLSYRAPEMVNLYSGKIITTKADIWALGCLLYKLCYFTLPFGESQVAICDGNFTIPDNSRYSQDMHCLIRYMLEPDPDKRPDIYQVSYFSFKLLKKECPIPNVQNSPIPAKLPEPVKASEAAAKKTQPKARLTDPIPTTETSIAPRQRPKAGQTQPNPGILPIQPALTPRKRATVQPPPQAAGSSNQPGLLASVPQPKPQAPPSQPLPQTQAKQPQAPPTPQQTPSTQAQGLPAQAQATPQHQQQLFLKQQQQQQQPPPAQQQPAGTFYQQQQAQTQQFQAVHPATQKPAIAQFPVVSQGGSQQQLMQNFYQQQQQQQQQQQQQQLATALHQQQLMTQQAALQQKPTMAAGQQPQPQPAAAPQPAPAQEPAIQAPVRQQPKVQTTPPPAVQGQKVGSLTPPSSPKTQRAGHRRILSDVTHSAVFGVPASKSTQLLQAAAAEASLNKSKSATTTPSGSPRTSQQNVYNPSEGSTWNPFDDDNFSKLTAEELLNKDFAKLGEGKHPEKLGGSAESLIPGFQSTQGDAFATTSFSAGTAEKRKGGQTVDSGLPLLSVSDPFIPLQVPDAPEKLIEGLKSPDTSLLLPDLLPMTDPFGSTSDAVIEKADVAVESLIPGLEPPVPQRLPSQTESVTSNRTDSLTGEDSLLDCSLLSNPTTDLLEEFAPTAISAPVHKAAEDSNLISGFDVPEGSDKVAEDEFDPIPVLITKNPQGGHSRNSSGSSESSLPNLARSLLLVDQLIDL
T2 sequence (Q9NSY1 38-345 K320A/K321A): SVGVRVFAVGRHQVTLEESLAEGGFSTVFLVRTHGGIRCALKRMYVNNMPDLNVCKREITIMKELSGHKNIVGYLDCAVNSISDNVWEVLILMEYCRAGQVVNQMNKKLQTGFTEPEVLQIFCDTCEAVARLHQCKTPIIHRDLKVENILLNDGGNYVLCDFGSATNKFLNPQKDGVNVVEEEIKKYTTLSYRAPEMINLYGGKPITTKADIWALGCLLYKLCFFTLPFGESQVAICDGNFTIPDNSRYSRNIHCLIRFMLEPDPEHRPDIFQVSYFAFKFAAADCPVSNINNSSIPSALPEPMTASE

Consider `CC1(OC(=O)N2CCN(c3ccn4ncc(-c5cccnc5OC5CC5)c4n3)CC2)COC1` [Compound I-2, (3-methyloxetan-3-yl)-4-[3-[2-(cyclopropoxy)-3-pyridyl]pyrazolo[1,5-a]pyrimidin-5-yl]piperazine-1-carboxylate], for which the IC50 is 1 to 50 nM in experiment [1], 51 to 150 nM at AAK1 and 151 to 500 nM in experiment [2].
The like results for `CC(=O)N1CC(Oc2ncccc2-c2cnn3ccc(N4CCN(C(=O)O[C@@H]5CNC(=O)C5)CC4)nc23)C1` [Compound I-59, (S)-5-oxopyrrolidin-3-yl 4-(3-(2-((1-acetylazetidin-3-yl)oxy)pyridin-3-yl)pyrazolo[1,5-a]pyrimidin-5-yl)piperazine-1-carboxylate] were, in that order, 1 to 50 nM, greater than 1500 nM and 501 to 1500 nM.
On the same counts, the results for `CN(CCNc1ccn2ncc(-c3cccnc3OC3CN(C(=O)OC(C)(C)C)C3)c2n1)C(=O)OC(C)(C)C` [Compound I-62, Tert-butyl3-[[3-[5-[2-[tert-butoxycarbonyl(methyl)amino]ethylamino]pyrazolo[1,5-a]pyrimidin-3-yl]-2-pyridyl]oxy]azetidine-1-carboxylate] are 1 to 50 nM, greater than 1500 nM and 151 to 500 nM.
The like results for `CN1C[C@@H](OC(=O)N2CCN(c3ccn4ncc(-c5cccnc5OC5CCOC5)c4n3)CC2)CC1=O` (stereo partly drawn) [Compound I-119, [(3S)-1-methyl-5-oxo-pyrrolidin-3-yl]4-[3-(2-tetrahydrofuran-3-yloxy-3-pyridyl)pyrazolo[1,5-a]pyrimidin-5-yl]piperazine-1-carboxylate] were, in that order, 51 to 150 nM, greater than 1500 nM and 501 to 1500 nM.
As for `COc1ncccc1-c1cnn2ccc(N3CCN(C(=O)O[C@H]4CO[C@H]5OCC[C@H]54)CC3)nc12` [Compound I-65, (3R,3aS,6aR)-hexahydrofuro[2,3-b]furan-3-yl 4-(3-(2-methoxypyridin-3-yl)pyrazolo[1,5-a]pyrimidin-5-yl)piperazine-1-carboxylate], the IC50 fell in the range of 1 to 50 nM in experiment [1], 151 to 500 nM at AAK1 and 151 to 500 nM in experiment [2].
Consider `O=C1C[C@H](OC(=O)N2CCN(c3ccn4ncc(-c5cccnc5NC5CNC5)c4n3)CC2)CN1` [Compound I-49, (S)-5-oxopyrrolidin-3-yl4-(3-(2-(azetidin-3-ylamino)pyridin-3-yl)pyrazolo[1,5-a]pyrimidin-5-yl)piperazine-1-carboxylate], for which the IC50 (in experiment [1]; at AAK1) was greater than 1500 nM throughout.
In the case of `CN(CCN1C[C@@H](OC(=O)N2CCN(c3ccn4ncc(-c5cccnc5OC5CC5)c4n3)CC2)CC1=O)C(=O)OC(C)(C)C` [Compound I-35, (S)-1-(2-((tert-butoxycarbonyl)(methyl)amino)ethyl)-5-oxopyrrolidin-3-yl-4-(3-(2-cyclopropoxypyridin-3-yl)pyrazolo[1,5-a]pyrimidin-5-yl)piperazine-1-carboxylate], the IC50 in experiment [1] is 51 to 150 nM; on AAK1 it was greater than 1500 nM.
For `[2H]C([2H])([2H])N1C[C@@H](OC(=O)N2CCN(c3nc4c(-c5cccnc5OC5CC5)cnn4cc3F)CC2)CC1=O` [Compound I-116, [(3S)-5-oxo-1-(trideuteriomethyl)pyrrolidin-3-yl]4-[3-[2-(cyclopropoxy)-3-pyridyl]-6-fluoro-pyrazolo[1,5-a]pyrimidin-5-yl]piperazine-1-carboxylate], the figures for the IC50 in experiment [1] and in experiment [2] were 1 to 50 nM and 51 to 150 nM, respectively.
Take `CC(C)(C)OC(=O)N1CC(Nc2ncccc2-c2cnn3ccc(N4CCN(C(=O)O[C@@H]5CNC(=O)C5)CC4)nc23)C1` [Compound I-48, [(3S)-5-oxopyrrolidin-3-yl]4-[3-[2-[(1-tert-butoxycarbonylazetidin-3-yl)amino]-3-pyridyl]pyrazolo[1,5-a]pyrimidin-5-yl]piperazine-1-carboxylate]: the IC50 in experiment [1] was 501 to 1500 nM; on AAK1, greater than 1500 nM.
As to `O=C(O[C@H]1CO[C@H]2OCC[C@H]21)N1CCN(c2ccn3ncc(-c4ccncn4)c3n2)CC1` [Compound I-67, [(3aS,4R,6aR)-2,3,3a,4,5,6a-hexahydrofuro[2,3-b]furan-4-yl]4-(3-pyrimidin-4-ylpyrazolo[1,5-a]pyrimidin-5-yl)piperazine-1-carboxylate], the values for the IC50 (in experiment [1]; at AAK1) were 501 to 1500 nM and greater than 1500 nM, respectively.
As to `[2H]C([2H])([2H])N1C[C@@H](OC(=O)N2CCN(c3nc4c(-c5cc(F)cnc5OC5CC5)cnn4cc3F)CC2)CC1=O` [Compound I-118, [(3S)-5-oxo-1-(trideuteriomethyl)pyrrolidin-3-yl]4-[3-[2-(cyclopropoxy)-5-fluoro-3-pyridyl]-6-fluoro-pyrazolo[1,5-a]pyrimidin-5-yl]piperazine-1-carboxylate], the IC50 in experiment [1] lay within 1 to 50 nM; in experiment [2] it was 51 to 150 nM.
For `CN1C[C@@H](OC(=O)N2CCN(c3nc4c(-c5cccnc5OC5CC5)cnn4cc3O)CC2)CC1=O` [Compound I-110, [(3S)-1-methyl-5-oxo-pyrrolidin-3-yl]-4-[3-[2-(cyclopropoxy)-3-pyridyl]-6-hydroxy-pyrazolo[1,5-a]pyrimidin-5-yl]piperazine-1-carboxylate], the IC50 (in experiment [1]; at AAK1) was greater than 1500 nM in each case.
For the compound `COc1cn2ncc(-c3cccnc3OC3CC3)c2nc1N1CCN(C(=O)O[C@H]2CC(=O)N(C)C2)CC1` [Compound I-110-9, [(3S)-1-methyl-5-oxo-pyrrolidin-3-yl]-4-[3-[2-(cyclopropoxy)-3-pyridyl]-6-methoxy-pyrazolo[1,5-a]pyrimidin-5-yl]piperazine-1-carboxylate], the IC50 (in experiment [1]; at AAK1) was greater than 1500 nM in each case.
With `COC(=O)N1CC(Oc2ncccc2-c2cnn3ccc(N4CCN(C(=O)O[C@@H]5CC(=O)N(CCO)C5)CC4)nc23)C1` [Compound I-84, [(3R)-1-(2-hydroxyethyl)-5-oxo-pyrrolidin-3-yl]4-[3-[2-(1-methoxycarbonylazetidin-3-yl)oxy-3-pyridyl]pyrazolo[1,5-a]pyrimidin-5-yl]piperazine-1-carboxylate], the IC50 in experiment [1] is 151 to 500 nM; on AAK1, greater than 1500 nM.
For `O=C1C[C@H](OC(=O)N[C@@H]2CCN(c3ccn4ncc(-c5cccnc5OC5CC5)c4n3)C2)CN1` [Compound I-54, [(3S)-5-oxopyrrolidin-3-yl]N-[(3R)-1-[3-[2-(cyclopropoxy)-3-pyridyl]pyrazolo[1,5-a]pyrimidin-5-yl]pyrrolidin-3-yl]carbamate], the IC50 in experiment [1] is 501 to 1500 nM; at AAK1, greater than 1500 nM.
The like results for `CC1(OC(=O)N2CCN(c3ccn4ncc(-c5cccnc5OCC5CCC5)c4n3)CC2)COC1` [Compound I-19, 3-Methyloxetan-3-yl 4-(3-(2-(cyclobutylmethoxy)pyridin-3-yl)pyrazolo[1,5-a]pyrimidin-5-yl)piperazine-1-carboxylate] were, in that order, 151 to 500 nM and greater than 1500 nM.
On the same counts, the results for `COC(=O)N1CC(Oc2ncccc2-c2cnn3ccc(N4CCN(C(=O)O[C@@H]5CC(=O)N(CCOCc6ccccc6)C5)CC4)nc23)C1` [Compound I-84-6, [(3R)-1-(2-benzyloxyethyl)-5-oxo-pyrrolidin-3-yl]-4-[3-[2-(1-methoxycarbonyl-azetidin-3-yl)oxy-3-pyridyl]pyrazolo[1,5-a]pyrimidin-5-yl]piperazine-1-carboxylate] are 151 to 500 nM and greater than 1500 nM.

The values above are taken from patent US20250122207A1, “AP2 ASSOCIATED KINASE 1 INHIBITORS AND USES THEREOF” (Satellos Bioscience Inc., priority 2023, published 2025).
